Source: PubChem BioAssay AID256 (DTP/NCI, 2004)
Several values for one entry are separate records, joined by “and”; a condition that tells them apart may be missing. Identical values can stand only once. Inconclusive results and toxic doses are left out.

Tested on: CD2F1 mice, L1210 leukemia ip, survival T/C
Assay: NCI In Vivo Anticancer Drug Screen. Data for tumor model L1210 Leukemia (intraperitoneal) in CD2F1 (CDF1) mice
Details: higher = longer survival
In short: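 Read-out first: treated-group measurement over vehicle-control measurement, expressed as a ratio. Animals bore a transplanted tumor line and were dosed with compound or vehicle.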

O=c1[nH]cc(F)c(=O)[nH]1
T/C (endpoint: mean survival time, dose: 2.5 mg/kg/injection, schedule: Q01DX009 (ip), vehicle: saline): 113 % of control | T/C (endpoint: mean survival time, dose: 3.75 mg/kg/injection, schedule: Q01DX003 (ip), vehicle: saline): 116 % of control | T/C (endpoint: mean survival time, dose: 3.75 mg/kg/injection, schedule: Q01DX005 (ip), vehicle: saline): 114 % of control and 122 % of control | T/C (endpoint: mean survival time, dose: 4.0 mg/kg/injection, schedule: Q03HX016 (ip), vehicle: water): 167 % of control | T/C (endpoint: mean survival time, dose: 4.0 mg/kg/injection, schedule: Q03HX024 (ip), vehicle: water): 153 % of control | T/C (endpoint: mean survival time, dose: 5.0 mg/kg/injection, schedule: Q01DX009 (ip), vehicle: saline): 124 % of control | T/C (endpoint: mean survival time, dose: 7.5 mg/kg/injection, schedule: Q03HX024 (ip), vehicle: saline): 157 % of control | T/C (endpoint: mean survival time, dose: 8.0 mg/kg/injection, schedule: Q01DX009 (ip), vehicle: water): 151 % of control | T/C (endpoint: mean survival time, dose: 8.0 mg/kg/injection, schedule: Q03HX016 (ip), vehicle: water): 154 % of control | T/C (endpoint: mean survival time, dose: 10.0 mg/kg/injection, schedule: Q01DX002 (ip), vehicle: saline): 124 % of control | T/C (endpoint: mean survival time, dose: 10.0 mg/kg/injection, schedule: Q01DX006 (ip), vehicle: saline): 161 % of control | T/C (endpoint: mean survival time, dose: 10.0 mg/kg/injection, schedule: Q03HX016 (ip), vehicle: saline): 152 % of control | T/C (endpoint: mean survival time, dose: 10.8 mg/kg/injection, schedule: Q01DX009 (ip), vehicle: saline): 150 % of control | T/C (endpoint: mean survival time, dose: 12.0 mg/kg/injection, schedule: Q04DX003 (ip), vehicle: saline): 121 % of control | T/C (endpoint: mean survival time, dose: 12.5 mg/kg/injection, schedule: Q03HX024 (oral), vehicle: saline): 122 % of control | T/C (endpoint: mean survival time, dose: 13.3 mg/kg/injection, schedule: Q01DX009 (ip), vehicle: saline sonified): 168 % of control | T/C (endpoint: mean survival time, dose: 14.0 mg/kg/injection, schedule: Q01DX009 (ip), vehicle: saline sonified): 160 % of control | T/C (endpoint: mean survival time, dose: 14.0 mg/kg/injection, schedule: Q01DX009 (ip), vehicle: saline with Tween-80): 157 % of control and 172 % of control | T/C (endpoint: mean survival time, dose: 15.0 mg/kg/injection, schedule: Q01DX005 (ip), vehicle: saline): 158 % of control and 169 % of control | T/C (endpoint: mean survival time, dose: 16.0 mg/kg/injection, schedule: Q01DX009 (oral), vehicle: saline): 114 % of control | T/C (endpoint: mean survival time, dose: 16.0 mg/kg/injection, schedule: Q03HX008 (ip), vehicle: water): 163 % of control | T/C (endpoint: mean survival time, dose: 16.0 mg/kg/injection, schedule: Q03HX024 (ip), vehicle: water): 120 % of control | T/C (endpoint: mean survival time, dose: 20.0 mg/kg/injection, schedule: Q01DX009 (ip), vehicle: saline sonified): 169 % of control | T/C (endpoint: mean survival time, dose: 20.0 mg/kg/injection, schedule: Q03DX003 (ip), vehicle: saline): 152 % of control | T/C (endpoint: mean survival time, dose: 22.5 mg/kg/injection, schedule: Q01DX009 (ip), vehicle: saline): 117 % of control | T/C (endpoint: mean survival time, dose: 25.0 mg/kg/injection, schedule: Q01DX001 (ip), vehicle: saline): 117 % of control | T/C (endpoint: mean survival time, dose: 25.0 mg/kg/injection, schedule: Q03HX024 (oral), vehicle: saline): 118 % of control | T/C (endpoint: mean survival time, dose: 30.0 mg/kg/injection, schedule: Q01DX003 (ip), vehicle: saline): 168 % of control | T/C (endpoint: mean survival time, dose: 30.0 mg/kg/injection, schedule: Q01DX003 (oral), vehicle: saline): 123 % of control | T/C (endpoint: mean survival time, dose: 30.0 mg/kg/injection, schedule: Q01DX005 (oral), vehicle: saline): 119 % of control | T/C (endpoint: mean survival time, dose: 30.0 mg/kg/injection, schedule: Q01DX009 (ip), vehicle: saline sonified): 152 % of control | T/C (endpoint: mean survival time, dose: 30.0 mg/kg/injection, schedule: Q04DX003 (ip), vehicle: saline sonified): 152 % of control | T/C (endpoint: mean survival time, dose: 32.0 mg/kg/injection, schedule: Q04DX003 (ip), vehicle: water): 169 % of control | T/C (endpoint: mean survival time, dose: 32.0 mg/kg/injection, schedule: Q08DX002 (ip), vehicle: water): 154 % of control | T/C (endpoint: mean survival time, dose: 40.0 mg/kg/injection, schedule: Q04DX003 (ip), vehicle: saline sonified): 165 % of control | T/C (endpoint: mean survival time, dose: 40.0 mg/kg/injection, schedule: Q04DX003 (ip), vehicle: saline with Tween-80): 160 % of control and 163 % of control and 172 % of control | T/C (endpoint: mean survival time, dose: 44.0 mg/kg/injection, schedule: Q04DX003 (ip), vehicle: saline): 172 % of control | T/C (endpoint: mean survival time, dose: 50.0 mg/kg/injection, schedule: Q01DX009 (oral), vehicle: saline): 116 % of control | T/C (endpoint: mean survival time, dose: 50.0 mg/kg/injection, schedule: Q03HX008 (oral), vehicle: saline): 122 % of control | T/C (endpoint: mean survival time, dose: 50.0 mg/kg/injection, schedule: Q04DX003 (ip), vehicle: saline): 172 % of control | T/C (endpoint: mean survival time, dose: 60.0 mg/kg/injection, schedule: Q01DX005 (oral), vehicle: saline): 117 % of control | T/C (endpoint: mean survival time, dose: 60.0 mg/kg/injection, schedule: Q03HX024 (ip), vehicle: saline): 164 % of control | T/C (endpoint: mean survival time, dose: 60.0 mg/kg/injection, schedule: Q04DX003 (ip), vehicle: saline sonified): 164 % of control | T/C (endpoint: mean survival time, dose: 60.0 mg/kg/injection, schedule: Q04DX003 (ip), vehicle: saline with Tween-80): 164 % of control | T/C (endpoint: mean survival time, dose: 62.5 mg/kg/injection, schedule: Q01DX001 (oral), vehicle: saline): 113 % of control | T/C (endpoint: mean survival time, dose: 64.0 mg/kg/injection, schedule: Q01DX009 (oral), vehicle: saline): 119 % of control | T/C (endpoint: mean survival time, dose: 64.0 mg/kg/injection, schedule: Q04DX003 (ip), vehicle: water): 160 % of control | T/C (endpoint: mean survival time, dose: 64.0 mg/kg/injection, schedule: Q08DX002 (ip), vehicle: water): 164 % of control | T/C (endpoint: mean survival time, dose: 67.5 mg/kg/injection, schedule: Q04DX003 (ip), vehicle: saline): 150 % of control | T/C (endpoint: mean survival time, dose: 80.0 mg/kg/injection, schedule: Q03HX024 (ip), vehicle: saline): 176 % of control | T/C (endpoint: mean survival time, dose: 80.0 mg/kg/injection, schedule: Q04DX003 (ip), vehicle: saline sonified): 160 % of control | T/C (endpoint: mean survival time, dose: 100.0 mg/kg/injection, schedule: Q08DX002 (oral), vehicle: saline): 151 % of control | T/C (endpoint: mean survival time, dose: 128.0 mg/kg/injection, schedule: Q04DX003 (ip), vehicle: water): 120 % of control | T/C (endpoint: mean survival time, dose: 128.0 mg/kg/injection, schedule: Q08DX002 (ip), vehicle: water): 167 % of control | T/C (endpoint: mean survival time, dose: 132.0 mg/kg/injection, schedule: Q01DX001 (ip), vehicle: saline): 153 % of control | T/C (endpoint: mean survival time, dose: 166.0 mg/kg/injection, schedule: Q01DX001 (ip), vehicle: saline with Tween-80): 150 % of control | T/C (endpoint: mean survival time, dose: 200.0 mg/kg/injection, schedule: Q01DX001 (oral), vehicle: saline): 118 % of control | T/C (endpoint: mean survival time, dose: 200.0 mg/kg/injection, schedule: Q04DX003 (ip), vehicle: saline): 159 % of control | T/C (endpoint: mean survival time, dose: 256.0 mg/kg/injection, schedule: Q08DX002 (ip), vehicle: water): 120 % of control | T/C (endpoint: mean survival time, dose: 300.0 mg/kg/injection, schedule: Q01DX001 (ip), vehicle: saline with Tween-80): 153 % of control | T/C (endpoint: mean survival time, dose: 338.0 mg/kg/injection, schedule: Q01DX001 (ip), vehicle: saline): 150 % of control | T/C (endpoint: mean survival time, dose: 400.0 mg/kg/injection, schedule: Q04DX003 (ip), vehicle: saline with Tween-80): 117 % of control | T/C (endpoint: mean survival time, dose: 400.0 mg/kg/injection, schedule: Q04DX003 (ip), vehicle: saline): 161 % of control | T/C (endpoint: median survival time, dose: 6.48 mg/kg/injection, schedule: Q01DX009 (ip), vehicle: saline): 120 % of control | T/C (endpoint: median survival time, dose: 7.5 mg/kg/injection, schedule: Q01DX009 (ip), vehicle: saline): 153 % of control | T/C (endpoint: median survival time, dose: 7.5 mg/kg/injection, schedule: Q## X009 (ip), vehicle: saline): 153 % of control | T/C (endpoint: median survival time, dose: 10.0 mg/kg/injection, schedule: Q01DX001 (ip), vehicle: saline): 152 % of control | T/C (endpoint: median survival time, dose: 13.0 mg/kg/injection, schedule: Q04DX002 (ip), vehicle: saline): 121 % of control | T/C (endpoint: median survival time, dose: 13.0 mg/kg/injection, schedule: Q04DX003 (ip), vehicle: saline): 121 % of control | T/C (endpoint: median survival time, dose: 14.3 mg/kg/injection, schedule: Q04DX003 (ip), vehicle: saline): 124 % of control | T/C (endpoint: median survival time, dose: 15.0 mg/kg/injection, schedule: Q01DX005 (ip), vehicle: saline): 165 % of control | T/C (endpoint: median survival time, dose: 15.0 mg/kg/injection, schedule: Q01DX009 (ip), vehicle: saline): 167 % of control | T/C (endpoint: median survival time, dose: 15.0 mg/kg/injection, schedule: Q## X009 (ip), vehicle: saline): 167 % of control | T/C (endpoint: median survival time, dose: 20.0 mg/kg/injection, schedule: Q01DX001 (ip), vehicle: saline): 154 % of control | T/C (endpoint: median survival time, dose: 21.6 mg/kg/injection, schedule: Q04DX002 (ip), vehicle: saline): 123 % of control | T/C (endpoint: median survival time, dose: 30.0 mg/kg/injection, schedule: Q01DX009 (ip), vehicle: saline): 173 % of control | T/C (endpoint: median survival time, dose: 36.0 mg/kg/injection, schedule: Q04DX003 (ip), vehicle: saline): 160 % of control and 167 % of control | T/C (endpoint: median survival time, dose: 39.6 mg/kg/injection, schedule: Q04DX003 (ip), vehicle: saline): 164 % of control | T/C (endpoint: median survival time, dose: 40.0 mg/kg/injection, schedule: Q04DX002 (ip), vehicle: saline): 162 % of control | T/C (endpoint: median survival time, dose: 80.0 mg/kg/injection, schedule: Q04DX002 (ip), vehicle: saline): 166 % of control | T/C (endpoint: median survival time, dose: 100.0 mg/kg/injection, schedule: Q04DX003 (ip), vehicle: saline): 151 % of control | T/C (endpoint: median survival time, dose: 300.0 mg/kg/injection, schedule: Q01DX001 (ip), vehicle: Klucel (hydroxypropylcellulose) (HPC)): 174 % of control
